For 20 molecules, IC50 and ID₅₀ results are on record in EP0572863A1, “CNS pyrazinoindoles” (priority 1992, dated 1993).

pIC50: −log10 of the molar value. Like-named read-outs stand apart in the source and are kept apart here.

In experiment [1] the target is 5HT1C-Rezeptor (Homo sapiens, UniProt P28335). Briefly: 3H-Mesulergin binding test (test method c).
In experiment [2] the target is 5HT₂-Rezeptor (Homo sapiens, UniProt P28223). Description: 3H-Metanserin binding test (test method d).
Experiment [3] addresses T1, 5HT1A-Rezeptor (Homo sapiens, UniProt P08908).
T1 sequence (P08908 1-422): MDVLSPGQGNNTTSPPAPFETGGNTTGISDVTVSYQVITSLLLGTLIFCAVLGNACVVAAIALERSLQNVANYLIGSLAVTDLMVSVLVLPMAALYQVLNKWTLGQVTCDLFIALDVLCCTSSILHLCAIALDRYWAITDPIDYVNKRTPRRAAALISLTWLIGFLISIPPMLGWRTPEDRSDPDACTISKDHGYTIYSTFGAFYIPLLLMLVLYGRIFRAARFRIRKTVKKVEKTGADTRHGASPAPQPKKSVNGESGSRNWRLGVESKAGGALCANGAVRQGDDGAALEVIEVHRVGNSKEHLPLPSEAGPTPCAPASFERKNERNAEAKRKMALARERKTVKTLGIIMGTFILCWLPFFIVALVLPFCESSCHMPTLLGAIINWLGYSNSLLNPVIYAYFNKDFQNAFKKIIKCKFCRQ
Briefly: 3H-8-OH-DPAT binding test (test method a).

The target in experiment [4] is T2, 5HT1c-Rezeptoren (Rattus norvegicus, UniProt P08909).
T2 construct: from tissue; host or cells: living rat (whole animal)
T2 sequence (P08909 33-460): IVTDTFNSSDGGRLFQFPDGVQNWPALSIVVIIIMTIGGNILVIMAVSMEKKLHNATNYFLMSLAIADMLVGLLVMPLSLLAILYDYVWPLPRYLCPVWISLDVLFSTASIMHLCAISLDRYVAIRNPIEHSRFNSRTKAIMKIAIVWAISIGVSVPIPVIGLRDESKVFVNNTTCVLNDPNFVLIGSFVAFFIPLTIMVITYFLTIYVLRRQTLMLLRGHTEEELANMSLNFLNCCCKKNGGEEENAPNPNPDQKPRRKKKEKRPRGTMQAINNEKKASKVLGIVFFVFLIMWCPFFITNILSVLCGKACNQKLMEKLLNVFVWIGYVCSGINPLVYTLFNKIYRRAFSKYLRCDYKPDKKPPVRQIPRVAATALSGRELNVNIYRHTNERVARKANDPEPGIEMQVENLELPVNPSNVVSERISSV
Briefly: Antagonism of mCPP-induced penile erections. The class given is in vivo, Ratte. The note with it: mCPP-pretreated, dose inhibiting number of penile erections within 45 min by 50%.

Experiment [5] addresses T3, 5HT₂-Rezeptoren (Rattus norvegicus, UniProt P14842).
T3 construct: from tissue; host or cells: living rat (whole animal)
Briefly: Antagonism of Quipazine-induced head shakes. The class given is in vivo, Ratte. The note with it: Quipazine-pretreated, dose inhibiting number of head shakes within 45 min by 50%.

[6] abbreviates: Testmethode c, concentration displacing 50% of receptor-bound ligand (3H-Mesulergin), read-out: IC₅₀.
Setting [7] is: Testmethode d, concentration displacing 50% of receptor-bound ligand (3H-Metanserin), read-out: IC₅₀.
Setting [8] is: Testmethode a, concentration displacing 50% of receptor-bound ligand (3H-8-OH-DPAT), read-out: IC₅₀.

5HT₂-Rezeptor, sequence (P28223 whole entry): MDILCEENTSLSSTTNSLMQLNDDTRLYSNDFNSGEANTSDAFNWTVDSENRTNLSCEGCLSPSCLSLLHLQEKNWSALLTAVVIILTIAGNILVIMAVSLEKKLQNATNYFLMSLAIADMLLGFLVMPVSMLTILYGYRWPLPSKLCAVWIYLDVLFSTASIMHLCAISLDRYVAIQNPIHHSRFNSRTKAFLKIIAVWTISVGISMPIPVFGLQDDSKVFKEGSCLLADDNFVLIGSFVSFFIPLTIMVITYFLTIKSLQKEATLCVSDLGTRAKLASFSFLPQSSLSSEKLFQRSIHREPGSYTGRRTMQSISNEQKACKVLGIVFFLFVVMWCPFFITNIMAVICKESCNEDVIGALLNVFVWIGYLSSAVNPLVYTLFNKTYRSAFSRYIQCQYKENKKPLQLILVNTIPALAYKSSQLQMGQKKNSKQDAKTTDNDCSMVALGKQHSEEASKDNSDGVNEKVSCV
5HT1C-Rezeptor, sequence (P28335 33-458): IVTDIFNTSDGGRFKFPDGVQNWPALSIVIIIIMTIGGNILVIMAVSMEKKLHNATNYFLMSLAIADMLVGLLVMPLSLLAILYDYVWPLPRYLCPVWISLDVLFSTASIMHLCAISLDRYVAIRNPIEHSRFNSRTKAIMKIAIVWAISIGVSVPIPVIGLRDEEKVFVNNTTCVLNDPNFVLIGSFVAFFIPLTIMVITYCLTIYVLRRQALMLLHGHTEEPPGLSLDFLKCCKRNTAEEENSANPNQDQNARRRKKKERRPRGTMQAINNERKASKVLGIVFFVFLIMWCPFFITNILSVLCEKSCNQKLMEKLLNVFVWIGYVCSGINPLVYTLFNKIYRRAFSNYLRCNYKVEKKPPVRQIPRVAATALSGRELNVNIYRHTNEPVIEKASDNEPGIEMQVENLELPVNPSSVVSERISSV
T3 sequence (P14842 whole entry): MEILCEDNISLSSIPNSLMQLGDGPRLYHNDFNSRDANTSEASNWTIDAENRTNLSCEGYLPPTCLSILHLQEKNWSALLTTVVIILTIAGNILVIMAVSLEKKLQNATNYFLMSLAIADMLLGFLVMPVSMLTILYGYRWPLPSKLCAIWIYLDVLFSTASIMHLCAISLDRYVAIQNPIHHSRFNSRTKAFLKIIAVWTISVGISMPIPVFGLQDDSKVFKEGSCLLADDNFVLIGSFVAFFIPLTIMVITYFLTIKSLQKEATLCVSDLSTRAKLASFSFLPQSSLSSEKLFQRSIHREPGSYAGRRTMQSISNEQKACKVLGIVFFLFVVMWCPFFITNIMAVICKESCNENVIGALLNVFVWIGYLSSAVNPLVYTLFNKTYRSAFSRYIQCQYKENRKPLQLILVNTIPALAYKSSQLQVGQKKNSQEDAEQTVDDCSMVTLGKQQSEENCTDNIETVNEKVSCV

Consider `COc1c2n(c3cc(Cl)ccc13)CCNC2` [Substanz F, 7-Chlor-1,2,3,4-tetrahydro-10-methoxy-pyrazino[1,2-a]indol], for which the values for the pIC50 in experiment [1] (setting [6]), in experiment [2] (setting [7]) and in experiment [3] were 6.39, 5.02 and 6.37, respectively.
As for `COc1c2n(c3cccc(F)c13)CCNC2` [Substanz C, 9-Fluor-1,2,3,4-tetrahydro-10-methoxy-pyrazino[1,2-a]indol], in experiment [4], the ID₅₀ is on record as 17.0 mg/kg, s.c. The pIC50 is 6.66 in experiment [1], 5.29 in experiment [2] and 5.97 in experiment [3].
As for `COc1c2n(c3cccc(Br)c13)CCNC2` [Substanz E, 9-Brom-1,2,3,4-tetrahydro-10-methoxy-pyrazino[1,2-a]indol], the ID₅₀ in experiment [5] is given as 3.1 mg/kg. s.c; in experiment [4], 4.3 mg/kg, s.c. Further, the values for the pIC50 in experiment [1], in experiment [2] and in experiment [3] were 7.08, 5.99 and 6.39, respectively.
Consider `CSc1c2n(c3ccccc13)CCNC2` [Substanz K, 1,2,3,4-Tetrahydro-10-methylthiopyrazino[1,2-a]-indol], for which the pIC50 in experiment [3] (setting [8]) is 6.15.
Regarding `COc1c2n(c3ccc(F)c(Cl)c13)CCNC2` [Substanz H, 9-Chlor-8-fluor-1,2,3,4-tetrahydro-10-methoxy-pyrazino[1,2-a]indol], the figures for the pIC50 in experiment [1] (setting [6]), in experiment [2] (setting [7]) and in experiment [3] were 7.04, 5.99 and 6.45, respectively.
As for `Fc1ccc2c(cc3n2CCNC3)c1Cl` [Substanz N, 9-Chlor-8-fluor-1,2,3,4-tetrahydropyrazino[1,2-a]indol], the ID₅₀ in experiment [5] was 5.2 mg/kg. s.c; in experiment [4], 4.2 mg/kg, s.c. Besides, the pIC50 was 7.24 in experiment [1] (setting [6]), 6.04 in experiment [2] (setting [7]) and 6.02 in experiment [3].
As to `Clc1cccc(N2CCNCC2)c1` [mCPP, reference compound], the pIC50 in experiment [3] was 6.64.
On to `COc1c2n(c3cc(Cl)cc(Cl)c13)CCNC2` [Substanz L, 7,9-Dichlor-1,2,3,4-tetrahydro-10-methoxy-pyrazino[1,2-a]indol], for which the pIC50 in experiment [1] (setting [6]) was 6.60; in experiment [2] (setting [7]), 5.23; in experiment [3], 6.34.
Take `O=c1ccc2[nH]cc(C3=CCNCC3)c2[nH]1` [CP 93129, reference compound]: the figures for the pIC50 in experiment [2] and in experiment [3] were 4.53 and 5.79, respectively.
Consider `Cc1nc2sccn2c(=O)c1CCN1CCC(=C(c2ccc(F)cc2)c2ccc(F)cc2)CC1` [Ritanserin, reference compound], for which, in experiment [1] (setting [6]), the pIC50 is 7.43.
As for `COc1c2n(c3cccc(C)c13)CCNC2` [Substanz I, 1,2,3,4-Tetrahydro-10-methoxy-9-methyl-pyrazino[1,2-a]indol], the ID₅₀ in experiment [5] is given as 3.0 mg/kg. s.c; in experiment [4] it was 2.7 mg/kg, s.c. Moreover, the pIC50 is 6.66 in experiment [1] (setting [6]), 5.64 in experiment [2] (setting [7]) and 6.97 in experiment [3] (setting [8]).
As for `COc1ccc2[nH]cc(C3=CCNCC3)c2c1` [RU 24969, reference compound], in experiment [3], the pIC50 was 8.10.
Take `COc1c2n(c3ccc(F)cc13)CCNC2` [Substanz B, 8-Fluor-1,2,3,4-tetrahydro-10-methoxy-pyrazino[1,2-a]-indol]: the ID₅₀ in experiment [4] is recorded as 4.2 mg/kg, s.c. Further, the results for the pIC50 in experiment [1], in experiment [2] and in experiment [3] were 6.44, 5.03 and 5.63, respectively.
In the case of `Cc1nc2ccccn2c(=O)c1CCN1CCC(C(=O)c2ccc(F)cc2)CC1` [Pirenperon, reference compound], the pIC50 in experiment [1] was 7.43; in experiment [2] (setting [7]) it was 8.54; in experiment [3], 5.54.
With `COc1c2n(c3cccc(C(F)(F)F)c13)CCNC2` [Substanz J, 9-Trifluormethyl-1,2,3,4-tetrahydro-10-methoxy-pyrazino[1,2-a]-indol], the pIC50 in experiment [1] (setting [6]) was 7.18; in experiment [2] (setting [7]), 6.43; in experiment [3], 6.29.
For the molecule `COc1c2n(c3c(Br)cccc13)CCNC2` [Substanz M, 6-Brom-1,2,3,4-tetrahydro-10-methoxy-pyrazino[1,2-a]indol], the pIC50 in experiment [1] (setting [6]) was 6.03; in experiment [2] (setting [7]) it was 5.52; in experiment [3], 6.16.
`COc1ccccc1N1CCN(CCCCN2C(=O)c3ccccc3C2=O)CC1` [NAN-190, reference compound]: the results for the pIC50 in experiment [1] (setting [6]) and in experiment [2] were 5.74 and 6.24, respectively.
On to `COc1c2n(c3ccccc13)CCNC2` [Substanz A, 10-Methoxy-1,2,3,4-tetrahydropyrazino[1,2-a]-indol], for which, in experiment [3] (setting [8]), the pIC50 was 6.16.
As for `COc1c2n(c3ccc(Br)cc13)CCNC2` [Substanz G, 8-Brom-1,2,3,4-tetrahydro-10-methoxy-pyrazino[1,2-a]indol], the pIC50 in experiment [1] (setting [6]) was 6.57; in experiment [2] (setting [7]), 5.55; in experiment [3], 6.53.
Consider `COc1c2n(c3ccc(Cl)cc13)CCNC2` [Substanz D, 8-Chlor-1,2,3,4-tetrahydro-10-methoxy-pyrazino[1,2-a]-indol], for which the pIC50 in experiment [1] was 6.71; in experiment [2] (setting [7]) it was 5.50; in experiment [3] it was 6.18.
